Marks after values point to notes of the source that are not given here.
Tests used:
[1] = tested on: Lipoprotein Lipase (Bacterial); test: In vitro FRET-based lipoprotein lipase assay with reporter compound 17; assay type: biochemical, Pseudomonas sp.
[2] = target: T1, Pancreatic Lipase (Porcine) (Sus scrofa, UniProt P00591); test: In vitro FRET-based pancreatic lipase assay with reporter compound 17; assay type: biochemical; details: preliminary studies, substrate 17
T1 sequence (P00591 1-450): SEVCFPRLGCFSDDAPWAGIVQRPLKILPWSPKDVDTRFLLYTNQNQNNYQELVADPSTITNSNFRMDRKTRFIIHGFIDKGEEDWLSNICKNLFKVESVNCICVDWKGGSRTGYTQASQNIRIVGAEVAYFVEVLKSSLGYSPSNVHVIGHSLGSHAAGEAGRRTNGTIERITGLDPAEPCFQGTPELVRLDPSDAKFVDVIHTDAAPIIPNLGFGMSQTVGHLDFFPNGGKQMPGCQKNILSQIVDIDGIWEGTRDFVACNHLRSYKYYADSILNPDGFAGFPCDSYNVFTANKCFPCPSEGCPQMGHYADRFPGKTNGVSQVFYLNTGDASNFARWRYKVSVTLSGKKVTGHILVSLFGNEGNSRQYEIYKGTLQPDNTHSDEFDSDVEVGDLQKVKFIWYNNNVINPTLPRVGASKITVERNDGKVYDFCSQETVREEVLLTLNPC

hDAGLα [3] = target: T2, hDAGLα (Homo sapiens, UniProt Q9Y4D2); test: Radio-TLC assay of hDAGLα inhibition with [14C]SAG substrate; assay type: biochemical; details: for inhibition of hDAGLα activity at 10 μM (in words): radiolabeled substrate [14C]SAG
T2 sequence (Q9Y4D2 1-1042): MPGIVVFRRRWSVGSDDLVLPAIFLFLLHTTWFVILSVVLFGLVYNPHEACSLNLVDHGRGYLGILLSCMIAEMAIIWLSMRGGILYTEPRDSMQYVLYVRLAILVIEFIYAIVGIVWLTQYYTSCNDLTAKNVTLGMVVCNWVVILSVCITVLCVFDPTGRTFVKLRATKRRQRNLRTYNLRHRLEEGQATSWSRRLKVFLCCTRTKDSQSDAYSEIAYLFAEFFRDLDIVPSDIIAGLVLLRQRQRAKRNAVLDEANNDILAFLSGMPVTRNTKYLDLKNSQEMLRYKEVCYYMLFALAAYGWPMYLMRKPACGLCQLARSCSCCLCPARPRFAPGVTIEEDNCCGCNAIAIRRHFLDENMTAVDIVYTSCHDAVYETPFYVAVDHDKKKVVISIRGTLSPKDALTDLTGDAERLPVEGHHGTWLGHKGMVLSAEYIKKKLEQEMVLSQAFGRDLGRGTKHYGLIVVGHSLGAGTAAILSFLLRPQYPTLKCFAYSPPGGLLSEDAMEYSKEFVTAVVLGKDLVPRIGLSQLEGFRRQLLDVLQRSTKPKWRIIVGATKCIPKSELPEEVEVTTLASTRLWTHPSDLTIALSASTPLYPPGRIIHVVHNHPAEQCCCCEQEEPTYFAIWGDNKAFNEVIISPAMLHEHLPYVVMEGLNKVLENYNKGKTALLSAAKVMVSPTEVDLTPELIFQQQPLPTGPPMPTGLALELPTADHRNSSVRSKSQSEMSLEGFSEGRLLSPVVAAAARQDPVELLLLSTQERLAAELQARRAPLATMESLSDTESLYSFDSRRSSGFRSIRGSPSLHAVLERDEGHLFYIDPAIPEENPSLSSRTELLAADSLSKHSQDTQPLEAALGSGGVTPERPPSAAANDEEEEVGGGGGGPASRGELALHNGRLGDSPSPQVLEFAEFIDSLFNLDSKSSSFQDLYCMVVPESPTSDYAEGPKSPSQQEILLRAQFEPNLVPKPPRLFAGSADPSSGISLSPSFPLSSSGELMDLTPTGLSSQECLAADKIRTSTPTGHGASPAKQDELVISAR

FAAH = details: cited from earlier work
hDAGLα [4] = target: T2, hDAGLα; details: cited from earlier work
cannabinoid receptors = details: cited from earlier work
[5] = target: CB1 (rat brain preparation) (Rattus norvegicus, UniProt P20272); test: Cannabinoid receptor competition binding, CB1
CB1 (rat brain preparation), sequence (P20272 whole entry): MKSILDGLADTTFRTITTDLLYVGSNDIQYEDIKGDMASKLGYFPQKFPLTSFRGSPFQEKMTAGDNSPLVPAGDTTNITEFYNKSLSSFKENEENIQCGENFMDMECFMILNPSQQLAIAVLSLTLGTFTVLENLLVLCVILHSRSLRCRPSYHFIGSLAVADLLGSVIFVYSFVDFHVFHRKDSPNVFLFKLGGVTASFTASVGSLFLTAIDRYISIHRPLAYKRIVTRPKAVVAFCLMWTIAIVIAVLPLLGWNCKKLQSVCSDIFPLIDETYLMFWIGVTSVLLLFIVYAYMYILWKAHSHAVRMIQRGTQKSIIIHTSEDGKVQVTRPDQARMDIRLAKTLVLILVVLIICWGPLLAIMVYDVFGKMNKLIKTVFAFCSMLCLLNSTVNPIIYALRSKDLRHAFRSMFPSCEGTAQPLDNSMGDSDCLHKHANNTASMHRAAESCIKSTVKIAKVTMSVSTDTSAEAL

hDAGLα [6] = target: T2, hDAGLα; test: In vitro FRET-based DAGL assay with reporter compound 17; assay type: biochemical
mDAGLβ = target: T3, mDAGLβ (Mus musculus, UniProt Q91WC9); test: Radio-TLC assay of mDAGLβ inhibition with [14C]SAG substrate; assay type: biochemical, murine
T3 sequence (Q91WC9 1-669): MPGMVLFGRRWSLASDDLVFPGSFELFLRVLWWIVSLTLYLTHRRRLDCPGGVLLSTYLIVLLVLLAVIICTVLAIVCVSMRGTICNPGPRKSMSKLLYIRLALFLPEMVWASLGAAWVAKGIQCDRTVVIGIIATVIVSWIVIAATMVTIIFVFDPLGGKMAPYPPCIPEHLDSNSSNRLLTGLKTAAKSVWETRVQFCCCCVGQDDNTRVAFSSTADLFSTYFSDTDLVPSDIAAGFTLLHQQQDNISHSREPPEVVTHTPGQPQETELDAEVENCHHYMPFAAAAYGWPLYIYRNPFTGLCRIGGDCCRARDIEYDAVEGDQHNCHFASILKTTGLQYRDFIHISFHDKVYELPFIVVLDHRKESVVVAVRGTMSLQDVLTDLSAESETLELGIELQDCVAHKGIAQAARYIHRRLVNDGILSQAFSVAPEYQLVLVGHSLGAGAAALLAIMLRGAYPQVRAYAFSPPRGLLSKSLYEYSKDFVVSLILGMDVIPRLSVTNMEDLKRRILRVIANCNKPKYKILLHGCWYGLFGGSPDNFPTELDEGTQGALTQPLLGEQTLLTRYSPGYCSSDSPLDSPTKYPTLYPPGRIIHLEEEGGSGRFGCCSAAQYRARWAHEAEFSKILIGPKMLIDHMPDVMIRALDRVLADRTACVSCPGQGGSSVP

SMILES: CCCCCCCCCCC[C@@H](C[C@@H]1OC(=O)[C@H]1CCCCCC)OC(=O)[C@H](CC(C)C)NC=O [3 (THL), tetrahydrolipstatin]
- inhibition of bacterial lipoprotein lipase (in words) [1]: potent inhibition
- IC50 ([1]; read-out: apparent IC50 with lipoprotein lipase in FRET assay): ~100 nM
- inhibition of porcine triacylglycerol lipase (in words) [2]: potent inhibition
- inhibition of hDAGLα activity at 10 μM (in words) (hDAGLα [3]): complete inhibition

SMILES: O=C(Oc1ccc([N+](=O)[O-])cc1)N1CCC(C(O)(c2ccc3c(c2)OCO3)c2ccc3c(c2)OCO3)CC1 [JZL184]
- reported inhibition of FAAH activity (in words) (FAAH): poor inhibitors
- reported inhibition of DAGL activity (in words) (hDAGLα [4]): poor inhibitors
- binding to the cannabinoid receptors, previous reports (in words) (cannabinoid receptors): did not bind
- inhibition of hDAGLα in radio-TLC assays (in words) (hDAGLα [3]): poor inhibitors

SMILES: O=S(=O)(F)Cc1ccccc1 [PMSF, phenylmethylsulfonylfluoride]
- reported inhibition of FAAH activity (in words) (FAAH): poor inhibitors
- effect on / reaction with DAGL (in words) (hDAGLα [4]): not affected
- reported inhibition of DAGL activity (in words) (hDAGLα [4]): poor inhibitors
- inhibition of hDAGLα in radio-TLC assays (in words) (hDAGLα [3]): poor inhibitors

SMILES: O=C(NCCCCCCNC(=O)ON=C1CCCCC1)ON=C1CCCCC1 [RHC80267 (1), RHC80267]
- reported inhibition of FAAH activity (in words) (FAAH): poor inhibitors
- reported inhibition of DAGL activity (in words) (hDAGLα [4]): poor inhibitors
- binding to the cannabinoid receptors (in words), CB1 [5]: did not bind
- hDAGLα inhibition at 10 μM detergent free (%) (hDAGLα [6]): 40 ^* %
- inhibition of hDAGLα in radio-TLC assays (in words) (hDAGLα [3]): poor inhibitors

SMILES: O=C(N[C@H]1COC1=O)OCc1ccccc1 [SD41]
- binding to the cannabinoid receptors (in words), CB1 [5]: did not bind
- inhibition of mDAGLβ at 10 μM screening concentration (in words) (mDAGLβ): did not inhibit
- inhibition of hDAGLα activity at 10 μM (in words) (hDAGLα [3]): did not inhibit

SMILES: NC(=O)c1cccc(-c2cccc(OC(=O)NC3CCCCC3)c2)c1 [URB597]
- binding to the cannabinoid receptors, previous reports (in words) (cannabinoid receptors): did not bind

Source: publication PMC3389199 (Bioorganic & medicinal chemistry letters, 2012)
